Measurements as given in patent publication US8143254B2, “Methods for modulating ion channels” (Cornell Research Foundation, Inc., priority 2005, dated 2012).
Like-named read-outs stand apart in the source and are kept apart here.

Target: T1, Kv2.1 (Rattus norvegicus, UniProt P15387)
T1 construct: expressed in transfected cells; host or cells: Xenopus laevis oocytes (cRNA injection, pGA1 vector)
Assay: Two-electrode voltage clamp (TEVC) of Xenopus oocytes expressing Kv2.1, bath-applied compound
Type: cell-based
Settings: for slope of dose response curve: Kv2.1, Example 8; for mean inhibition at 0 mV relative to +60 mV: Kv2.1, voltage dependence of block; for effect on Kv2.1 currents: 1 mM, bath applied; for relative sensitivity of Kv2.1 and Kv3.4: Kv2.1 versus Kv3.4
Text: The ion channel subunit genes are in expression vectors that facilitate in vitro transcription of channel cRNA using the Ambion mMessage mMachine in vitro transcription kit. cDNA constructs are column-purified, linearized with the appropriate restriction enzyme that cuts a single site following the polyA tail, then purified by precipitation and transcribed in vitro using a promoter, such as T7, T3 and SP6. Transcribed cRNA is purified by precipitation and resuspended in RNAse-free water ready for injection. Each transcription can provide enough cRNA for several months of experiments.
Stage V-VI Xenopus oocytes are separated into small groups using forceps, defolliculated by agitation in Ca^2+-free Ringer solution containing collagenase for one hour, washed, then stored at 15° C. in full Ringers solution before injection. cRNA sufficient to give 1-10 μA of current at physiological voltages for each channel type is injected into Xenopus oocytes (selected by appearance for overall health and uniformity of color) using a Sutter manual injector (typically 0.1-5 ng cRNA in a volume of 25-50 nl). The oocytes are then stored for 1-3 days at 15° C. before TEVC recording. Beta subunit cRNA is co-injected as appropriate, typically 2 ng per oocyte.
Whole cell oocyte experiments are performed using a Warner OC-725C amplifier and pClamp9 software with oocytes bathed in a small-volume Warner oocyte bath and viewed with a Fisher dissection microscope. Bath solution for whole cell oocyte recordings, e.g., for potassium channel analysis, is generally (in mM): 96 NaCl, 4 KCl, 1 MgCl2, 0.3 CaCl2, 10 HEPES (Ph 7.4); whole-cell oocyte TEVC pipettes are filled with 3 M KCl. Oocyte patches are studies using an Axon Instruments small-volume bath, viewed with an Olympus IX50 inverted microscope, and recordings made using an Axon Multiclamp 700 A Amplifier and pCLAMP9 software (Axon Instruments). Extracellular solution, e.g., for potassium channel analysis, is generally (in mM): 135 NaCl, 5 KCl, 1.2 MgCl2, 5 HEPES, 2.5 CaCl2, 10 D-glucose (Ph 7.4). Intracellular solution, e.g., for potassium channel analysis, is generally (in mM): 10 NaCl, 117 KCl, 2 MgCl2, 11 HEPES, 11 EGTA, ICaCl2 (Ph 7.2). Patch pipettes are approximately 3-5 MΩ resistance when filled with recording solution.
Quantitative aspects of ion action on ion channels are compared using standard pulse protocols. Pulse times and voltages will vary according to which currents are being studied. […] Drug inhibition constants are calculated after generating a dose response curve by fitting with a logistic dose-response function (see equation (i) below). Typically, 5-20 cells per group are recorded from for heterologous expression experiments. Values are to be stated as mean±SEM with statistical significance set at p<0.05 (unpaired students t-test, ANOVA or the Mann-Whitney Rank Sum Test as appropriate).
Injected oocytes, bathed in bath solution containing 4 mM KCl, unless otherwise stated, are impaled with current and voltage electrodes and clamped at −80 mV holding potential using a Warner OC-725C amplifier. […] Drug concentrations are chosen to ensure inhibition values between 0 and 90-100% with at least 3 values within the linear portion of the curve so that the inhibition constant (Ki) can be calculated accurately by fitting with a logistic dose-response function (formula (i)) using the Origin 6.1 graph package.
Kv2.1 mutants were constructed using the QuickChange Multi Site-Directed Mutagenesis Kit (Stratagene, La Jolla, Calif.). […] For oocyte expression, Kv3.4 was in pBF1, Kv4.2 was in pRAT. cRNA transcripts were produced from SacII-linearized (Kv2.1), Mlullinearized (Kv3.4) and Not1-linearized (Kv4.2) DNA templates using the T3 (Kv2.1), SP6 (Kv3.4) and T7 (Kv4.2) mMessage mMachine kits (Ambion, Austin, Tex.). cRNA was quantified by spectrophotometry and its size integrity verified by gel electophoresis.

[1] = IC50, Kv2.1, logistic dose response fit, Example 8

T1 sequence (P15387 whole entry): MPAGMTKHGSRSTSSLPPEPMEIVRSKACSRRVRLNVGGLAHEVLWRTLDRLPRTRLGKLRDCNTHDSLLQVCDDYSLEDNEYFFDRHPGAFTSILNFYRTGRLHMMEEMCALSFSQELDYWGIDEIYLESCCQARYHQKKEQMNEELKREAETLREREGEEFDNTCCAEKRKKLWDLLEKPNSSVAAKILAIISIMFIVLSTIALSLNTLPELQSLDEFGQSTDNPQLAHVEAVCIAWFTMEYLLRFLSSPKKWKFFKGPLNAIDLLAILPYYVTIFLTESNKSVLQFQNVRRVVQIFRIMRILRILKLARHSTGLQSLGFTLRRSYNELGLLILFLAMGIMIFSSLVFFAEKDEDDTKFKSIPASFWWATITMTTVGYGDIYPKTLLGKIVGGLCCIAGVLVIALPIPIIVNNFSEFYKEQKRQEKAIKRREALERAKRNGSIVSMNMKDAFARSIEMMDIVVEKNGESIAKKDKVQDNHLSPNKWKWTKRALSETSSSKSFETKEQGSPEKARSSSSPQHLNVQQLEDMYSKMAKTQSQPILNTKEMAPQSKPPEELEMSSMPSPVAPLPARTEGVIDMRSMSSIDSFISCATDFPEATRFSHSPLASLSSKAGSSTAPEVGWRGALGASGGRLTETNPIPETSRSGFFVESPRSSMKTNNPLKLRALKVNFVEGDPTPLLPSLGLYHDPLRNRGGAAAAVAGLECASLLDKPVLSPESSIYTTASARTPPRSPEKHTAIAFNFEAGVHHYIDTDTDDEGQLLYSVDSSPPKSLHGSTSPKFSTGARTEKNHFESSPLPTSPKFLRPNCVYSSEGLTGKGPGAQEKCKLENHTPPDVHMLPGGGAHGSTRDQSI

Row | Structure (SMILES) | slope of dose response curve | mean inhibition at 0 mV relative to +60 mV | p (Hill slope) of logistic dose-response fit (Kv2.1 alone, Example 4) | effect on Kv2.1 currents | relative sensitivity of Kv2.1 and Kv3.4 | IC50 [1] | further results
1 | CCCCCCCCCCCC[N+]12CCN(CC1)CC2 [JE188, 1-aza-4-azonia-4-dodecylbicyclo[2.2.2]octane] | 1.4±0.1 | 3 fold | 1.4±0.1 | – | – | – | inhibition of Kv2.1 (50 μM): significantly inhibited; inhibition of Kv2.1 (250 μM): almost complete inhibition; IC50 (Kv2.1 alone, external bath application, Example 4, read-out: x0 of logistic dose-response fit of current inhibition (converted)): 23.3 ± 2.1 µM; sensitivity of Kv2.1 currents to compound relative to tetraethylammonium (externally applied): 500 fold
2 | c1cc(C[N+]23CCN(CC2)CC3)ccc1C[N+]12CCN(CC1)CC2 [JC638.2α, α,α′-[bis(4-aza-1-azoniabicyclo[2.2.2]octanyl)]p-xylene] | 1.4±0.1 | – | – | significant inhibition | significantly differentiate between Kv2.1 and Kv3.4 | – | IC50 (Kv2.1, logistic dose response fit, Example 8, read-out: IC50): 186 ± 17 µM; voltage dependence of block (inhibition attenuated at more positive voltages): voltage dependent block
3 | C(CC[N+]12CCN(CC1)CC2)C[N+]12CCN(CC1)CC2 [TG26] | – | – | – | less effective than TG27 | Kv2.1 was more sensitive than Kv3.4 | – | –
4 | CCCCCCCCCCCCCCCC[N+]12CCN(CC1)CC2 [TA279, 1-aza-4-azonia-4-hexadecylbicyclo[2.2.2]octane] | 0.6±0.4 | 3 fold | 0.8±0.1 | – | – | 1.9 ± 3.6 µM | sensitivity of Kv2.1 currents to TA279 relative to JE188: 20 fold; inhibition of Kv2.1 (1 μM): inhibiting; inhibition of Kv2.1 (5 mM): almost complete inhibition; time for washout (compared with TEA): several minutes; IC50 (x0 of logistic dose-response fit of current inhibition, Kv2.1 alone, external bath application, Example 4): 1 ± 0.8 µM
5 | C(CCCC[N+]12CCN(CC1)CC2)CCC[N+]12CCN(CC1)CC2 [TG27, 1,8-[bis(4-aza-1-azoniabicyclo[2.2.2]octanyl)]octane] | 2.1±0.8 | – | – | – | Kv2.1 was more sensitive than Kv3.4 | 270 ± 66.4 µM | –
